Results on 27 molecules are retold here after patent US11008317B2, “Triazolopyridine inhibitors of myeloperoxidase and/or EPX” (priority 2016, dated 2021).

Test [1] deals with T1, myeloperoxidase (Homo sapiens, UniProt P05164).
T1 sequence (P05164 49-745): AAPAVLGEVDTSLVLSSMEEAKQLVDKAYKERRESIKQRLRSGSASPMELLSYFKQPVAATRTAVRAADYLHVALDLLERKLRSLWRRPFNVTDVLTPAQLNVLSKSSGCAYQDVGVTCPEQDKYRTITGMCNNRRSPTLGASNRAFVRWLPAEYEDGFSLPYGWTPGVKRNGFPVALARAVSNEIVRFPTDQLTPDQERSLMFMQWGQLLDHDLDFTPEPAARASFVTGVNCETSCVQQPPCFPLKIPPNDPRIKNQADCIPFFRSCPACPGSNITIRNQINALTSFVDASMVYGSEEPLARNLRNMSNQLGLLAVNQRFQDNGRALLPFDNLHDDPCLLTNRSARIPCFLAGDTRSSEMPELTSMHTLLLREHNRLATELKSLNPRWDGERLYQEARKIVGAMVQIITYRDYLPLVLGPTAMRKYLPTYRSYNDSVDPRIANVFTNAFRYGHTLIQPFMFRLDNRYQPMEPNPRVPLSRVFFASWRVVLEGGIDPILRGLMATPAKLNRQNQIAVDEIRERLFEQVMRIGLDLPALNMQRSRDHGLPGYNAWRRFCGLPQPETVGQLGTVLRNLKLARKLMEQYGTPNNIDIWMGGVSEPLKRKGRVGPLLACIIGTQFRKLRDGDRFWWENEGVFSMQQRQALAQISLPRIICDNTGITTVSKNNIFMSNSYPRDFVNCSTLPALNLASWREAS
Nature of the test: MPO Peroxidation Assay (Amplex Red Assay). The format is biochemical. The conditions noted are these: potency range class, read-out: Amplex Red Assay IC50 value.

For test [2], the target named is T1, myeloperoxidase. Nature of the test: MPO Chlorination Assay (APF Assay). The test is classed as biochemical. The conditions noted are these: potency range class, read-out: APF Assay IC50 value.

Broadly, the IC50 is the concentration that inhibits the measured activity by half.

Structures can show the parent of a compound that is named as a salt.

For the molecule `Nc1cc(C(CCNCC23CC4CC(CC(C4)C2)C3)c2ccccc2)c2nn[nH]c2n1` (stereo not drawn) [Example 22, 7-(3-{[(adamantan-1-yl)methyl]amino}-1-phenylpropyl)-3H-[1,2,3]triazolo[4,5-b] pyridin-5-amine], the IC50 at myeloperoxidase [1] and on myeloperoxidase [2] was 0.101 to 0.999 µM in each case.

As to `Nc1cc([C@H](CCN(CC2CCO2)C23CCC(c4ccccc4)(CC2)CC3)c2ccccc2)c2nn[nH]c2n1` (stereo partly drawn) [Example 193, 7-[(1R)-3-{[(oxetan-2-yl)methyl]({4-phenylbicyclo [2.2.2]octan-1-yl})amino}-1-phenylpropyl]-3H-[1,2,3]triazolo[4,5-b]pyridin-5-amine], the IC50 at myeloperoxidase [1] and on myeloperoxidase [2] was 0.001 to 0.1 µM throughout.

For the molecule `Nc1cc(C(CCNC2(CO)CCC(c3ccccc3)CC2)c2ccccc2)c2nn[nH]c2n1` (stereo not drawn) [Example 116, {1-[(3-{5-amino-3H-[1,2,3]triazolo[4,5-b]pyridin-7-yl}-3-phenylpropyl)amino]-4-phenylcyclohexyl} methanol], the IC50 on myeloperoxidase [1] was in the range of 0.101 to 0.999 µM; at myeloperoxidase [2] it was 0.001 to 0.1 µM.

Take `Nc1cc(C(CCNC2CCC(c3ccc(F)cc3)CC2)c2ccccc2)c2nn[nH]c2n1` (stereo not drawn) [Example 125, 7-(3-{[4-(4-fluorophenyl)cyclohexyl]amino}-1-phenylpropyl)-3H-[1,2,3]triazolo[4,5-b]pyridin-5-amine]: the IC50 on myeloperoxidase [1] lay in the range of 0.101 to 0.999 µM; at myeloperoxidase [2] it was 0.001 to 0.1 µM.

As to `Nc1cc(C(CCC(=O)Cc2ccccc2)c2ccccc2)c2nn[nH]c2n1` (stereo not drawn) [Example 233, 5-(5-amino-3H-[1,2,3]triazolo[4,5-b]pyridin-7-yl)-1,5-diphenylpentan-2-one], the IC50 was in the range of 0.001 to 0.1 µM at myeloperoxidase [1] and 0.101 to 0.999 µM at myeloperoxidase [2].

`Cc1ccc(F)c(C(CCN[C@H]2CC[C@H](c3ccccc3)CC2)c2cc(N)nc3[nH]nnc23)c1` (stereo partly drawn) [Example 168, 7-[1-(2-fluoro-5-methylphenyl)-3-{[(trans)-4-phenylcyclohexyl]amino}propyl]-3H-[1,2,3]triazolo [4,5-b]pyridin-5-amine]: the IC50 lay within 1 to 10 µM at myeloperoxidase [1] and 0.001 to 0.1 µM on myeloperoxidase [2].

`NC(=O)c1ccc(C2CCC(NCCC(c3ccccc3)c3cc(N)nc4[nH]nnc34)CC2)cc1` (stereo not drawn) [Example 118, 4-{4-[(3-{5-amino-3H-[1,2,3]triazolo [4,5-b]pyridin-7-yl}-3-phenylpropyl)amino]cyclohexyl} benzamide]: the IC50 on myeloperoxidase [1] and at myeloperoxidase [2] was 0.101 to 0.999 µM throughout.

On to `Nc1cc([C@H](Cc2nc3c(-c4ccccc4)cc(Cl)cc3[nH]2)c2ccccc2)c2nn[nH]c2n1` [Example 244, (R)-7-(2-(6-chloro-4-phenyl-1H-benzo[d]imidazol-2-yl)-1-phenylethyl)-3H-[1,2,3]triazolo[4,5-b]pyridin-5-amine], for which the IC50 at myeloperoxidase [1] was in the range of 0.101 to 0.999 µM; at myeloperoxidase [2] it was 0.001 to 0.1 µM.

`Nc1cc(C(CCNC2c3ccccc3CC2c2ccccc2)c2ccccc2)c2nn[nH]c2n1` (stereo not drawn) [Example 46, 7-{1-phenyl-3-[(2-phenyl-2,3-dihydro-1H-inden-1-yl)amino]propyl}-3H-[1,2,3]triazolo [4,5-b]pyridin-5-amine]: the IC50 at myeloperoxidase [1] and on myeloperoxidase [2] was 0.101 to 0.999 µM throughout.

For `Nc1cc(C(CCCN2CCC(c3ccccc3)C2)c2ccccc2)c2nn[nH]c2n1` (stereo not drawn) [Example 209, 7-[1-phenyl-4-(3-phenylpyrrolidin-1-yl)butyl]-3H-[1,2,3]triazolo [4,5-b]pyridin-5-amine], the IC50 at myeloperoxidase [1] and on myeloperoxidase [2] was 0.101 to 0.999 µM throughout.

With `Nc1cc(C(CCNC(Cc2ccccc2)c2ccccc2)c2ccccc2)c2nn[nH]c2n1` (stereo not drawn) [Example 45, 7-{3-[(1,2-diphenylethyl)amino]-1-phenylpropyl}-3H-[1,2,3]triazolo[4,5-b] pyridin-5-amine], the IC50 on myeloperoxidase [1] and at myeloperoxidase [2] was 0.101 to 0.999 µM each time.

For the molecule `CC(C)(CNCCC(c1ccccc1)c1cc(N)nc2[nH]nnc12)c1ccccc1` (stereo not drawn) [Example 104, 7-{3-[(2-methyl-2-phenylpropyl)amino]-1-phenylpropyl}-3H-[1,2,3]triazolo[4,5-b] pyridin-5-amine], the IC50 at myeloperoxidase [1] and on myeloperoxidase [2] was 0.101 to 0.999 µM each time.

As to `Nc1cc(C(CCNC(Cc2ccccc2)c2ccccc2)c2ccccc2)c2nn[nH]c2n1` (stereo not drawn) [Example 47, 7-{3-[(1,2-diphenylethyl)amino]-1-phenylpropyl}-3H-[1,2,3]triazolo[4,5-b]pyridin-5-amine], the IC50 at myeloperoxidase [1] was in the range of 1 to 10 µM; on myeloperoxidase [2], 0.101 to 0.999 µM.

Turning to `Nc1cc(C(CCNS(=O)(=O)c2ccccc2)c2ccccc2)c2nn[nH]c2n1` (stereo not drawn) [Example 15, N-(3-(5-amino-3H-[1,2,3]triazolo[4,5-b]pyridin-7-yl)-3-phenylpropyl)benzenesulfonamide, TFA], the figures for the IC50 on myeloperoxidase [1] and at myeloperoxidase [2] were 0.001 to 0.1 µM and 0.101 to 0.999 µM, respectively.

In the case of `Nc1cc(C(CCCN2CCC(O)(c3ccccc3)CC2)c2ccccc2)c2nn[nH]c2n1` (stereo not drawn) [Example 207, 1-(4-{5-amino-3H-[1,2,3]triazolo [4,5-b]pyridin-7-yl}-4-phenylbutyl)-4-phenylpiperidin-4-ol], the IC50 was 0.101 to 0.999 µM on myeloperoxidase [1] and 0.001 to 0.1 µM on myeloperoxidase [2].

In the case of `Nc1cc([C@H](Cc2nc3ccc(-c4ccc(Cl)cc4)cc3[nH]2)c2ccccc2)c2nn[nH]c2n1` [Example 250], the IC50 at myeloperoxidase [1] is 0.101 to 0.999 µM; on myeloperoxidase [2] it was 0.001 to 0.1 µM.

With `CN(CC[C@H](c1ccccc1)c1cc(N)nc2[nH]nnc12)[C@H]1CC[C@H](c2ccccc2)CC1` (stereo in doubt) [Example 178, 7-(3-(methyl(4-phenylcyclohexyl)amino)-1-phenylpropyl)-3H-[1,2,3]triazolo[4,5-b]pyridin-5-amine], the IC50 at myeloperoxidase [1] fell in the range of 0.101 to 0.999 µM; on myeloperoxidase [2], 0.001 to 0.1 µM.

On to `Nc1cc([C@H](CCNC2CC[C@H](c3ccccc3)[C@@H](O)C2)c2ccccc2)c2nn[nH]c2n1` (stereo partly drawn) [Example 184, (1S,2R)-5-{[(3R)-3-{5-amino-3H-[1,2,3]triazolo[4,5-b]pyridin-7-yl}-3-phenylpropyl]amino}-2-phenylcyclohexan-1-ol], for which the IC50 at myeloperoxidase [1] was 0.101 to 0.999 µM; at myeloperoxidase [2], 0.001 to 0.1 µM.

`Nc1cc([C@H](Cc2nc3c(-c4ccccc4Cl)cccc3[nH]2)c2ccccc2)c2nn[nH]c2n1` [Example 260, (R)-7-(2-(4-(2-chlorophenyl)-1H-benzo[d]imidazol-2-yl)-1-phenylethyl)-3H-[1,2,3]triazolo [4,5-b]pyridin-5-amine]: the IC50 at myeloperoxidase [1] was 1 to 10 µM; on myeloperoxidase [2] it was 0.101 to 0.999 µM.

With `Nc1cc([C@H](CC(=O)NC23CCC(c4ccccc4)(CC2)CC3)c2cccc(O)c2)c2nn[nH]c2n1` [Example 202, (3R)-3-{5-amino-3H-[1,2,3]triazolo[4,5-b]pyridin-7-yl}-3-(3-hydroxyphenyl)-N-{4-phenylbicyclo [2.2.2]octan-1-yl} propanamide], the IC50 lay within 0.101 to 0.999 µM on myeloperoxidase [1] and 0.001 to 0.1 µM on myeloperoxidase [2].

Regarding `Nc1cc(C(CCNC2CC[C@H](c3ccccc3)[C@@H](O)C2)c2ccccc2)c2nn[nH]c2n1` (stereo partly drawn) [Example 150, (1S,2R)-5-[(3-{5-amino-3H-[1,2,3]triazolo[4,5-b]pyridin-7-yl}-3-phenylpropyl)amino]-2-phenylcyclohexan-1-ol], the IC50 was 0.101 to 0.999 µM at myeloperoxidase [1] and 0.001 to 0.1 µM at myeloperoxidase [2].

Turning to `NC(=O)c1cccc(CNCCC(c2ccccc2)c2cc(N)nc3[nH]nnc23)c1` (stereo not drawn) [Example 70, 3-{[(3-{5-amino-3H-[1,2,3]triazolo[4,5-b]pyridin-7-yl}-3-phenylpropyl)amino]methyl}hbenzamide], the IC50 on myeloperoxidase [1] and at myeloperoxidase [2] was 0.101 to 0.999 µM throughout.

Regarding `Nc1cc(C(CCN[C@@H](CO)CCCc2ccccc2)c2ccccc2)c2nn[nH]c2n1` (stereo partly drawn) [Example 236, (R)-2-((3-(5-amino-3H-[1,2,3]triazolo[4,5-b]pyridin-7-yl)-3-phenylpropyl)amino)-5-phenylpentan-1-ol], the IC50 on myeloperoxidase [1] lay within 1 to 10 µM; at myeloperoxidase [2] it was 0.001 to 0.1 µM.

On to `Nc1cc(C(CCNC2(c3ccccc3)CCC(c3ccccc3)CC2)c2ccccc2)c2nn[nH]c2n1` (stereo not drawn) [Example 144, 7-{3-[(1,4-diphenylcyclohexyl)amino]-1-phenylpropyl}-3H-[1,2,3]triazolo [4,5-b]pyridin-5-amine], for which the IC50 fell in the range of 1 to 10 µM at myeloperoxidase [1] and 0.101 to 0.999 µM at myeloperoxidase [2].

As for `CC1(C)C[C@@H](NCCC(c2ccccc2)c2cc(N)nc3[nH]nnc23)c2ccccc21` (stereo partly drawn) [Example 85, 7-(3-{[(1R)-3,3-dimethyl-2,3-dihydro-1H-inden-1-yl]amino}-1-phenylpropyl)-3H-[1,2,3]triazolo [4,5-b]pyridin-5-amine], the results for the IC50 at myeloperoxidase [1] and on myeloperoxidase [2] were 0.101 to 0.999 µM and 0.001 to 0.1 µM, respectively.

Consider `CCCCC12CCC(NCCC(c3ccccc3)c3cc(N)nc4[nH]nnc34)(CC1)CC2` (stereo not drawn) [Example 130, 7-[3-({4-butylbicyclo [2.2.2]octan-1-yl}amino)-1-phenylpropyl]-3H-[1,2,3]triazolo[4,5-b]pyridin-5-amine], for which the figures for the IC50 on myeloperoxidase [1] and at myeloperoxidase [2] were 0.101 to 0.999 µM and 0.001 to 0.1 µM, respectively.

With `Nc1cc([C@H](CCCN2CCC3(CC2)NC(=O)Nc2ccccc23)c2ccccc2)c2nn[nH]c2n1` [Example 222, 1-[(4R)-4-{5-amino-3H-[1,2,3]triazolo [4,5-b]pyridin-7-yl}-4-phenylbutyl]-2′,3′-dihydro-1′H-spiro [piperidine-4,4′-quinazoline]-2′-one], the IC50 at myeloperoxidase [1] fell in the range of 1 to 10 µM; at myeloperoxidase [2], 0.001 to 0.1 µM.
